The values that follow come from the PolyMetriX glass transition set.

In the case of `*/C(C)=C(/*)SCCCCCC` (repeat unit), the glass transition temperature was determined as 110.00 °C.

`*=Nc1ccc(Cc2ccc(NC(=*)C)cc2)cc1` (repeat unit) had a glass transition temperature of 142.00 °C.

As to `*=Nc1ccc(Cc2ccc(NC(=*)CCC)cc2)cc1` (repeat unit), the glass transition temperature turned out to be 110.00 °C.

With `*CC(*)(C)C(=O)OCc1ccc2c(c1)OCCOCCOCCOCCO2` (repeat unit), the glass transition temperature was found to be 38.00 °C.

Take `*CC(*)(C)C(=O)OCc1ccc2c(c1)c1ccccc1n2CC` (repeat unit): the glass transition temperature came out at 136.00 °C.

Molecule `*CC(*)(C)C(=O)OCc1ccc2c(c1)c1ccccc1n2CCCCCCCCCCCC` (repeat unit) displayed a glass transition temperature of 25.00 °C.

With `*CC(*)(C)C(=O)OCc1ccc2c(c1)c1ccccc1n2CCCCCCCCCCCCCCCC` (repeat unit), the glass transition temperature is 23.00 °C.

Molecule `*CC(*)(C)C(=O)OCc1cccc(Cl)c1Cl` (repeat unit) showed a glass transition temperature of 42.60 °C.

`*CC(*)(C)C(=O)OCc1cccs1` (repeat unit) gave a glass transition temperature of 66.00 °C.

`*CC(*)(C)C(=O)Oc1c(C)cccc1C` (repeat unit): the glass transition temperature is 167.00 °C.

On to `*CC(*)(C)C(=O)Oc1ccc(-c2nnc(-c3ccc(C(C)(C)C)cc3)o2)cc1` (repeat unit), for which the glass transition temperature worked out at 156.00 °C.

Take `*CC(*)(C)C(=O)Oc1ccc(/N=N/c2ccc(OC)cc2)cc1` (repeat unit): the glass transition temperature was found to be 120.00 °C.

Take `*CC(*)(C)C(=O)Oc1ccc(/N=N/c2ccc([N+](=O)[O-])cc2)cc1` (repeat unit): the glass transition temperature was determined as 145.00 °C.

With `*CC(*)(C)C(=O)Oc1ccc(C(=O)/C=C/c2ccc(OC)c(OC)c2)cc1` (repeat unit), the glass transition temperature stood at 137.00 °C.

In the case of `*CC(*)(C)C(=O)Oc1ccc(C(=O)Oc2ccc(C(=O)c3ccccc3)cc2)cc1` (repeat unit), the glass transition temperature came out at 72.00 °C.

`*CC(*)(C)C(=O)Oc1ccc(C(=O)c2ccccc2)c(O)c1` (repeat unit) showed a glass transition temperature of 270.00 °C.

As to `*CC(*)(C)C(=O)Oc1ccc(C(=O)c2ccccc2)cc1` (repeat unit), the glass transition temperature is 118.00 °C.

`*CC(*)(C)C(=O)Oc1ccc(CC#N)cc1` (repeat unit) yielded a glass transition temperature of 131.00 °C.

In turn, `*CC(*)(C)C(=O)Oc1ccc([N+](=O)[O-])c(C)c1` (repeat unit) returned a glass transition temperature of 101.00 °C.

Regarding `*CC(*)(C)C(=O)Oc1ccc2c(c1)CCC2` (repeat unit), the glass transition temperature came out at 113.50 °C.

Molecule `*CC(*)(C)c1ccc2ccccc2c1` (repeat unit) gave a glass transition temperature of 208.00 °C.

As to `*CC(*)(CC(=O)OC(C)C)C(=O)OC(C)C` (repeat unit), the glass transition temperature stood at 100.00 °C.

Take `*CC(*)(CC(=O)OC)C(=O)OC` (repeat unit): the glass transition temperature was 95.00 °C.

For `*CC(*)(CC(=O)OC)C(=O)OC12CC3CC(CC(C3)C1)C2` (repeat unit), the glass transition temperature is 197.00 °C.

As for `*CC(*)(CC(=O)OC1CCC1)C(=O)OC1CCC1` (repeat unit), the glass transition temperature worked out at 60.00 °C.

`*CC(*)(CC(=O)OCC1CCCCC1)C(=O)OCC1CCCCC1` (repeat unit) showed a glass transition temperature of 83.00 °C.

In the case of `*CC(*)(CC(=O)OCCC1CCCCC1)C(=O)OCCC1CCCCC1` (repeat unit), the glass transition temperature amounted to 48.00 °C.

As to `*CC(*)(CC(=O)OCCCC)C(=O)OCCCC` (repeat unit), the glass transition temperature came to 24.00 °C.

Consider `*CC(*)(CC(=O)OCCCC1CCCCC1)C(=O)OCCCC1CCCCC1` (repeat unit), for which the glass transition temperature is 7.00 °C.

`*CC(*)(CC(=O)OCCCCCC)C(=O)OCCCCCC` (repeat unit): the glass transition temperature is -7.00 °C.

Turning to `*CC(*)(CC(=O)OCCCc1ccccc1)C(=O)OCCCc1ccccc1` (repeat unit), the glass transition temperature is -8.00 °C.

As for `*CC(*)(CC(=O)OCCCl)C(=O)OCCCl` (repeat unit), the glass transition temperature turned out to be 43.00 °C.

Regarding `*CC(*)(CC(=O)OCCOCCOC)C(=O)OCCOCCOC` (repeat unit), the glass transition temperature is -40.50 °C.

Consider `*CC(*)(CC(=O)OCc1ccccc1)C(=O)OCc1ccccc1` (repeat unit), for which the glass transition temperature came out at 55.00 °C.

For `*CC(*)(CC(=O)Oc1ccc(OCCC)cc1)C(=O)Oc1ccc(OCCC)cc1` (repeat unit), the glass transition temperature was 94.50 °C.

`*CC(*)(CC)C(=O)OCC` (repeat unit) had a glass transition temperature of 27.00 °C.

Molecule `*CC(*)(CCC)C(=O)OC` (repeat unit) returned a glass transition temperature of 83.50 °C.

On to `*CC(*)(CCCCCCCC)C(=O)OC` (repeat unit), for which the glass transition temperature was 34.00 °C.

As to `*CC(*)(Cl)C(=O)OCCC(F)(F)C(F)(F)C(F)(F)C(F)(F)C(F)(F)C(F)(F)C(F)(F)C(F)(F)F` (repeat unit), the glass transition temperature worked out at 61.00 °C.

The molecule `*CC(*)(Cl)C(=O)OCCCC` (repeat unit) showed a glass transition temperature of 42.00 °C.

The molecule `*CC(*)(F)C(=O)OC(C(F)(F)F)C(F)(F)F` (repeat unit) yielded a glass transition temperature of 102.00 °C.

With `*CC(*)(F)C(=O)OCC` (repeat unit), the glass transition temperature was 94.00 °C.

Take `*CC(*)(F)C(=O)OCC(Cl)(Cl)Cl` (repeat unit): the glass transition temperature is 127.00 °C.

`*CC(*)(F)C(=O)OCC(F)(F)C(F)(F)C(F)(F)F` (repeat unit) yielded a glass transition temperature of 75.00 °C.

In turn, `*CC(*)(F)C(=O)OCC(F)(F)F` (repeat unit) showed a glass transition temperature of 124.00 °C.

In turn, `*CC(*)(F)C(=O)OCCC` (repeat unit) gave a glass transition temperature of 62.00 °C.

In turn, `*CC(*)(F)C(=O)OCCC(F)(F)C(F)(F)C(F)(F)C(F)(F)C(F)(F)C(F)(F)C(F)(F)C(F)(F)F` (repeat unit) showed a glass transition temperature of 87.50 °C.

In turn, `*CC(*)(F)C(=O)OCCC(F)(F)C(F)(F)C(F)(F)C(F)(F)C(F)(F)C(F)(F)F` (repeat unit) came in with a glass transition temperature of 53.00 °C.

Molecule `*CC(*)(F)C(C)=O` (repeat unit) returned a glass transition temperature of 142.00 °C.

In turn, `*CC(*)C(=O)NC` (repeat unit) gave a glass transition temperature of 171.00 °C.

`*CC(*)C(=O)NC(C)(C)CC(C)=O` (repeat unit) displayed a glass transition temperature of 72.50 °C.

As to `*CC(*)C(=O)NCP(=O)(O)O` (repeat unit), the glass transition temperature worked out at 26.00 °C.

In turn, `*CC(*)C(=O)Nc1ccc(C(=O)/C=C/c2cccc(Br)c2)cc1` (repeat unit) showed a glass transition temperature of 55.00 °C.

In turn, `*CC(*)C(=O)Nc1ccc(Cl)cc1` (repeat unit) registered a glass transition temperature of 76.00 °C.

The molecule `*Oc1ccc(Oc2ccc(/C(=N/c3ccc(Oc4ccc(/N=C(\c5ccccc5)c5ccc(*)cc5)cc4)cc3)c3ccccc3)cc2)cc1` (repeat unit) came in with a glass transition temperature of 162.00 °C.

`*Oc1ccc2ccc(Oc3ccc(/C(=N/c4ccc(/N=C(\c5ccccc5)c5ccc(*)cc5)cc4)c4ccccc4)cc3)cc2c1` (repeat unit) gave a glass transition temperature of 171.00 °C.
